Reference: PubChem BioAssay AID179 (DTP/NCI, 2004)
Where “and” joins values, the source holds several entries; their conditions need not be identical. Identical values can stand only once. Calls of active or inactive are those of the source.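 Rule for the calls: active = compounds giving half or more protection of infected cells from virus-caused growth loss, again on retest; inactive = the rest.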 *1 amine or outer side, *2 acyl side, *3 side chain or, on linkers, in order; H or OH if unused. Where a SMILES comes first, the peptide text is derived from it. [ ]: non-standard residue; d: D form. The star is where a group is joined. X3 = CC(=O)N(C)SCC(N[*:1])C(=O)[*:2]; Fmoc = O=C(OCC1c2ccccc2-c2ccccc21)*; For = O=C*

Tested on: CEM cells HIV-1 protection, formazan growth assay
Experiment: NCI AIDS Antiviral Assay
Conditions: for IC50: measured here: growth of uninfected CEM cells
In short: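 Human CEM cells, uninfected and HIV-1-infected, received five drug concentrations, and growth was read by soluble formazan assay. Compounds giving at least 50% protection were retested; reproducible 100% protection defined confirmed active.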

Structure (SMILES) | outcome | EC50 [µM] | IC50
Cc1cc(NC[C@H](O)[C@H](O)[C@H](O)CO)c(Sc2cc(=O)[nH]c(=O)[nH]2)cc1C | inactive | – | –
O=C(O)C1NCCc2c1[nH]c1ccccc21 (stereo unspecified) | inactive | – | –
[CH3][Sn]([CH3])([CH3])[c]1cccc2ccccc12 | inactive | – | –
Cc1cc(C)nc(NS(=O)(=O)c2ccc(Nc3c4ccccc4nc4ncccc34)cc2)n1 | inactive | – | –
O=NN1CCCS1(=O)=O | – | > 200 | > 200 µM
O=C(/C=C/c1cc(Cl)cc(Cl)c1O)c1cccc(O)c1 | inactive | – | –
CCOC(=O)C1([N+](=O)[O-])[C@@H]2CCCC[C@@H]21 (stereo partly specified) | – | > 316 | > 316 µM
CCOC(=O)CN(Cn1cncn1)Cn1cncn1 | – | > 200 | 28.8 µM
C=C(C)COc1ccc(C2OCC(CC)C(CCC)O2)cc1 (stereo unspecified) | – | > 200 | 89.1 µM
Nc1ccc2c(c1)C(=O)N(OS(=O)(=O)c1ccccc1)C2=O | inactive | – | –
CN(C)CCCNC(=O)c1cc(NC(=O)c2cc(NC(=O)[C@H]3C[C@@H]3C(=O)Nc3cc(C(=O)Nc4cc(C(=O)NCCCN(C)C)n(C)c4)n(C)c3)cn2C)cn1C | inactive | – | –
O=C(Nc1ccc(F)cc1)C(=O)C(C1OC(=O)c2ccccc21)[N+](=O)[O-] (stereo unspecified) | – | > 692 | 355 µM
C/C(=N\NS(=O)(=O)c1ccccc1)c1ccc[n+]([O-])n1 | inactive | – | –
N#CCCN(CCCCN(CCC#N)C(=O)Nc1ccccc1)C(=O)Nc1ccccc1 | – | > 200 | > 200 µM
Cc1ccc(/C=C2\Cc3c(C)cc(C)cc3C2=O)c(C(=O)O)c1 | – | > 200 | 85.1 µM
CCC(=O)OC1CCn2c1nc1c2C(=O)C(C)=C(NC(C)=O)C1=O (stereo unspecified) | – | > 200 | 1.23 µM
O=C1c2ccccc2C(=O)[C@@]23O[C@@]12C1(Oc2cccc4cccc(c24)O1)[C@@H]1O[C@@H]1[C@@H]3O | – | > 20 | 1.15 µM
Cc1c2c(nc3ccccc13)C(=O)c1cccnc1C2=O | – | > 100 | 13.5 µM
COc1cc(/C=C/C(=O)CC(=O)/C=C/c2ccc(O)c(OC)c2)ccc1O (tested in a mixture with another compound) | – | > 200 | 3.31 µM
CC[C@]1(Cc2ccc(OC)c(OC)c2)[C@@H]2C[C@@H](C3OCCO3)ON2O[C@H](OC2CCCC2(c2ccccc2)c2ccccc2)[C@@H]1OC(C)=O (stereo partly specified) | – | > 200 | 21.9 µM
COc1ccc2nc3cc([N+](=O)[O-])ccc3c(NCCO)c2c1 | – | > 200 | 1.05 µM

Structure (SMILES) | outcome | EC50 [µM] | IC50
Cc1ccc(N=NC(C(=O)c2ccccc2)C(=O)c2ccccc2)cc1 | – | > 39.8 | 20 µM
CC(=O)N(C)SCC(NC(=O)C(Cc1ccccc1)NC(=O)OCC1c2ccccc2-c2ccccc21)C(=O)NC(Cc1ccccc1)C(=O)NC(Cc1cn(C=O)c2ccccc12)C(=O)NC(CCCCNC(=O)OCC1c2ccccc2-c2ccccc21)C(=O)NC(C(=O)NC(CSN(C)C(C)=O)C(=O)NC(C(N)=O)C(C)O)C(C)O (stereo unspecified) (Fmoc-F[X3]FW(For)K(Fmoc)T[X3]T-NH2; configuration not given here) | – | > 100 | 79.4 µM
C[C@]12C(=O)OC[C@H](c3ccccc3)N1C(=O)N(Cc1ccccc1)[C@@H]2CO | – | > 200 | > 200 µM
C1CC2N=C3OCCC3N=C2O1 (stereo unspecified) | – | > 1510 | > 1510 µM
CC1(C)OC2=C(CC1Br)C(=O)C(=O)c1ccccc12 (stereo unspecified) | – | > 2 | 1.26 µM
COc1ccc(/C=C(/C#N)c2ccc(Cl)cc2)cc1 | – | > 200 | 3.98 µM
O=[N+]([O-])c1ccccc1/C=C/c1ccccn1 | – | > 16.6 | > 16.6 µM
CC(CC12C=CC3(OO1)C(C)(C)CCCC3(C)O2)OC(=O)c1ccccc1 (stereo unspecified) | – | > 200 | 7.08 µM and 11.2 µM
O=c1oc(-c2cccc(-c3nc4c(c(=O)o3)CCS4)c2)nc2c1CCS2 | – | > 200 | –
COc1cc(OC)nc(-n2c(N)c(C(=O)O)c3ccc([N+](=O)[O-])cc3c2=O)n1 | – | > 200 | 42.7 µM
c1ccc(-c2nc3sccn3n2)cc1 | inactive | – | –
COc1c2c(cc3c1C(=O)Cc1ccc4c(c1CN(C)CC3)OCO4)OCO2 | – | > 35.5 | > 35.5 µM
COc1ccc2nc(NC(=O)C(=O)C(C#N)c3ccc(Cl)c(Cl)c3)sc2c1 (stereo unspecified) | inactive | – | –
COc1ccc(C2c3cc4c(cc3OC(N3CCOCC3)C2C)OCO4)cc1OC (stereo unspecified) | – | > 200 | 7.76 µM
COc1cccc2c(=O)oc(-c3ccccc3C)nc12 | – | > 200 | 45.7 µM
C[P+]1(C)CCc2c1ccc1ccccc21 | inactive | – | –
CCCCCC1=CC2C(=O)NC(=O)NC12 (stereo unspecified) | – | > 47.9 | > 47.9 µM
CCCCCCCCCCCC[N+]12CC[N+](C)(CC1)CC2 | – | > 251 | 14.8 µM
CCCCCCCCSC(SCCCCCCCC)=C1C(=O)N(c2ccccc2)N=C1C | – | > 28.8 | > 28.8 µM
COc1ccc(NC(=S)N/N=C/c2ccccn2)cc1 | – | > 2 | 0.316 µM
CC(C)(C)[Si](C)(C)OC[C@H]1O[C@@H](n2ccc(=O)[nH]c2=O)[C@H](O[Si](C)(C)C(C)(C)C)[C@]1(O)[C@H](N=[N+]=[N-])C(N)=O | – | > 200 | 6.03 µM

Structure (SMILES) | outcome | EC50 [µM] | IC50
N=C1CSC2=NC3=C(CCC/C3=C\c3ccccc3)C(c3ccccc3)N12 (stereo unspecified) | – | > 18.6 | > 18.6 µM
COc1c2occc2c(N=Cc2ccncc2)c2ccc(=O)oc12 | – | > 39.8 | > 39.8 µM
CCCCCCCCOC(=O)CC(C(=O)OCCCCCCCC)S(=O)(=O)O (stereo unspecified) | – | > 200 | 117 µM
COc1ccc(/C=C(\C#N)c2ccc([N+](=O)[O-])cc2)cc1[N+](=O)[O-] | – | 182 | 195 µM
COc1cccc2c1c1ccc3c(c1n2C)C(=O)C=CC3=O | – | > 17.8 | 7.08 µM
CC1(C)C(C(=O)O)C1C(=O)O (stereo unspecified) | – | > 200 | > 200 µM
c1ccc(C2OCC(OC3CCCCO3)CO2)cc1 (stereo unspecified) | – | > 200 | > 200 µM
CC(=O)Oc1cc(OC(C)=O)c2c(c1)OC(c1ccc(OC(C)=O)c(OC(C)=O)c1)CC2=O (stereo unspecified) | – | > 57.5 | > 57.5 µM
O=C(CC1C(=O)Nc2ccccc2S1(=O)=O)Nc1cccc(Cl)c1 (stereo unspecified) | – | > 27.5 | > 27.5 µM
O=C1CCCC12CCOC2=O (stereo unspecified) | – | > 1620 | > 1620 µM
CC(C)(C)C(=O)/C=C/c1ccc(Cl)cc1 | – | > 32.4 | > 32.4 µM
COc1ccc([C@]23CCN(S(=O)(=O)c4ccc(C)cc4)[C@H]2[C@H](CO)C2(CC3)OCC(C)(C)CO2)cc1OC | – | > 100 | 87.1 µM
Cc1ccc(S(=O)(=O)NNC2Oc3cc4c(cc3C(c3ccccc3O)C2C)OCO4)cc1 (stereo unspecified) | – | > 200 | 26.3 µM
O=[N+]([O-])c1cnc(-c2ccc(F)cc2)n1CCO | – | > 200 | > 200 µM
CCCN(CCC)CC(=O)Nc1cccc(Cl)c1C | – | > 200 | 63.1 µM
Oc1cc(C2OCCCO2)cc(O)c1O | – | > 229 | 191 µM
Oc1ccc(-c2nc(=S)[nH][nH]2)cc1 | – | > 933 | 72.4 µM
CC12OC(=O)C(C(N)=O)=C1C=C(c1ccccc1)CC2c1ccccc1 (stereo unspecified) | – | > 200 | 33.1 µM
C=C/C=C/NC(=O)OCc1ccccc1 | inactive | – | –
CCCCCCCCCCCCCCCCOCC(CCl)OP(=O)(O)OP(=O)(O)OCC1OC(n2ccc(N)nc2=O)C(O)C1O (stereo unspecified) | – | > 200 | 170 µM
